Assay results taken from ChEMBL document CHEMBL5528066, “Discovery of Novel N-(Anthracen-9-ylmethyl) Benzamide Derivatives as ZNF207 Inhibitors Promising in Treating Glioma” (J Med Chem, 2024).
Calls of active or inactive are those of the source. No cut-off for these calls is given here.

Assays:
[1] = test system: H4; test: Inhibition of sphere formation in human H4 cells at 1 uM measured after 10 days in well containing 10 cells by microscopic analysis; type: functional, cell-based; conditions: time 10.0 day
[2] = test system: H4; test: Inhibition of sphere formation in human H4 cells at 2 uM measured after 10 days in well containing 1 cells by microscopic analysis; type: functional, cell-based; conditions: time 10.0 day
[3] = test system: LN-229; test: Antitumor activity against human LN-229 cells xenografted in BALB/c nude mouse assessed as reduction in proportion of Ki-67 positive cells at 15 to 45 mg/kg, po administered once a day and measured after 49 days by immunohistochemistry analysis; type: functional, organism-based; conditions: dose 15-45 mg/kg, time 49.0 day
[4] = Drug concentration in male Sprague-Dawley rat stomach at 45 mg/kg, po measured after 8 hrs by LC-MS/MS analysis; type: ADME, organism-based; conditions: read-out: Ct
[5] = test system: MDR1; test: Apparent permeability across basolateral to apical side in MDCKII-MDR1 cells assessed as drug recovery at 1 uM incubated for 2 hrs by LC-MS/MS analysis; type: ADME, cell-based, Canis lupus familiaris; conditions: dog, MDCK-MDR1, read-out: Drug recovery
[6] = test system: H4; test: Inhibition of sphere formation in human H4 cells incubated for 168 hrs by microscopic analysis; type: functional, cell-based; conditions: H4, 168 h
[7] = Drug concentration in male Sprague-Dawley rat lung at 45 mg/kg, po measured after 8 hrs by LC-MS/MS analysis; type: ADME, organism-based; conditions: read-out: Ct
[8] = test system: H4; test: Inhibition of colony formation in human H4 cells assessed as reduction in number of cell clones treated on day 1 and measured after 14 days by crystal violet staining based microscopic analysis; type: functional; conditions: dose 0.625-5 µM, time 14.0 day
[9] = test system: Hs 683; test: Induction of apoptosis in human Hs 683 cells assessed as apoptotic cells at 2.5 uM incubated for 24 hrs by Annexin V-FITC/PI staining based flow cytometry analysis relative to control; type: functional
[10] = Toxicity in male C57BL/6 mouse assessed as change in cellular structure of spleen at 45 mg/kg, po administered once a day for 2 weeks by H and E staining based analysis; type: organism-based; conditions: in vivo, 336 h
[11] = Toxicity in male C57BL/6 mouse assessed as change in cellular structure of brain at 45 mg/kg, po administered once a day for 2 weeks by H and E staining based analysis; type: organism-based; conditions: in vivo, 336 h
[12] = Toxicity in female C57BL/6 mouse assessed as change in cellular structure of spleen at 45 mg/kg, po administered once a day for 2 weeks by H and E staining based analysis; type: organism-based; conditions: in vivo, 336 h
[13] = test system: U-251; test: Inhibition of sphere formation in human U-251MG cells at 8 uM measured after 10 days in well containing 100 cells by microscopic analysis; type: functional, cell-based; conditions: time 10.0 day
[14] = Toxicity in female C57BL/6 mouse assessed as change in cellular structure of kidney at 45 mg/kg, po administered once a day for 2 weeks by H and E staining based analysis; type: organism-based; conditions: in vivo, 336 h
[15] = Drug concentration in male Sprague-Dawley rat heart at 45 mg/kg, po measured after 8 hrs by LC-MS/MS analysis; type: ADME, organism-based; conditions: read-out: Ct
[16] = test system: U-251; test: Inhibition of sphere formation in human U-251MG cells at 2 uM measured after 10 days in well containing 1000 cells by microscopic analysis; type: functional, cell-based; conditions: time 10.0 day
[17] = test system: H4; test: Inhibition of sphere formation in human H4 cells at 2 uM measured after 10 days in well containing 10 cells by microscopic analysis; type: functional, cell-based; conditions: time 10.0 day
[18] = test system: Hs 683; test: Inhibition of sphere formation in human Hs 683 cells at 2 uM measured after 10 days in well containing 10000 cells by microscopic analysis; type: functional, cell-based; conditions: time 10.0 day
[19] = test system: LN-229; test: Inhibition of sphere formation in human LN-229 cells assessed as fold reduction in sphere initiating frequency at 2 uM incubated for 10 days by microscopic analysis relative to control; type: functional; conditions: time 10 day
[20] = test system: H4; test: Antiproliferative activity against human H4 cells assessed as inhibition of cell growth measured after 72 hrs by CCK-8 assay; type: functional, cell-based; conditions: H4, 72 h
[21] = test system: U-251; test: Inhibition of sphere formation in human U-251MG cells assessed as fold reduction in sphere initiating frequency at 1 uM incubated for 10 days by microscopic analysis relative to control; type: functional; conditions: time 10 day
[22] = test system: U-251; test: Inhibition of sphere formation in human U-251MG cells incubated for 168 hrs by microscopic analysis; type: functional, cell-based; conditions: U-251, 168 h
[23] = test system: Hs 683; test: Inhibition of colony formation in human Hs 683 cells assessed as reduction in colony area at 5 uM treated on day 1 and measured after 14 days by crystal violet staining based microscopic analysis relative to control; type: functional; conditions: Hs 683, 336 h, time 14 day
[24] = test system: LN-229; test: Antitumor activity against human LN-229 cells xenografted in BALB/c nude mouse assessed as tumor growth delay by measuring tumor volume at 15 mg/kg, po administered once a day and measured every 2 days for 49 days (reference value: 700 […]); type: functional; conditions: time 49 day
[25] = test system: H4; test: Inhibition of sphere formation in human H4 cells at 8 uM measured after 10 days in well containing 100 cells by microscopic analysis; type: functional, cell-based; conditions: time 10.0 day
[26] = test system: U-251; test: Inhibition of sphere formation in human U-251MG cells at 8 uM measured after 10 days in well containing 1 cells by microscopic analysis; type: functional, cell-based; conditions: time 10.0 day
[27] = test system: U-251; test: Inhibition of sphere formation in human U-251MG cells assessed as fold reduction in sphere initiating frequency at 8 uM incubated for 10 days by microscopic analysis relative to control; type: functional; conditions: time 10 day
[28] = test system: U-251; test: Inhibition of colony formation in human U-251MG cells assessed as reduction in number of cell clones treated on day 1 and measured after 14 days by crystal violet staining based microscopic analysis; type: functional; conditions: dose 0.625-5 µM, time 14.0 day
[29] = test system: LN-229; test: Inhibition of sphere formation in human LN-229 cells at 8 uM measured after 10 days in well containing 100 cells by microscopic analysis; type: functional, cell-based; conditions: time 10.0 day
[30] = test system: LN-229; test: Inhibition of sphere formation in human LN-229 cells assessed as fold reduction in sphere initiating frequency at 8 uM incubated for 10 days by microscopic analysis relative to control; type: functional; conditions: time 10 day
[31] = test system: U-251; test: Antiproliferative activity against human U-251MG cells assessed as inhibition of cell growth measured after 72 hrs by CCK-8 assay; type: functional, cell-based; conditions: U-251, 72 h
[32] = test system: LN-229; test: Inhibition of sphere formation in human LN-229 cells at 4 uM measured after 10 days in well containing 100 cells by microscopic analysis; type: functional, cell-based; conditions: time 10.0 day
[33] = test system: LN-229; test: Inhibition of sphere formation in human LN-229 cells at 2 uM measured after 10 days in well containing 1 cells by microscopic analysis; type: functional, cell-based; conditions: time 10.0 day
[34] = test system: U-251; test: Inhibition of sphere formation in human U-251MG cells at 2 uM measured after 10 days in well containing 10000 cells by microscopic analysis; type: functional, cell-based; conditions: time 10.0 day
[35] = test system: U-251; test: Inhibition of sphere formation in human U-251MG cells at 1 uM measured after 10 days in well containing 10000 cells by microscopic analysis; type: functional, cell-based; conditions: time 10.0 day
[36] = test system: Hs 683; test: Antiproliferative activity against human Hs 683 cells assessed as inhibition of cell growth measured after 72 hrs by CCK-8 assay; type: functional, cell-based; conditions: Hs 683, 72 h
[37] = test system: H4; test: Inhibition of sphere formation in human H4 cells at 1 uM measured after 10 days in well containing 1 cells by microscopic analysis; type: functional, cell-based; conditions: time 10.0 day
[38] = test system: LN-229; test: Inhibition of sphere formation in human LN-229 cells at 8 uM measured after 10 days in well containing 1 cells by microscopic analysis; type: functional, cell-based; conditions: time 10.0 day
[39] = test system: LN-229; test: Inhibition of sphere formation in human LN-229 cells at 2 uM measured after 10 days in well containing 10 cells by microscopic analysis; type: functional, cell-based; conditions: time 10.0 day

## N#CC1(C(=O)NCCC2CCN(Cc3ccccc3)CC2)CC2(Br)c3ccccc3C1c1ccccc12 (racemic)
[1]
  inhibition: Active
[2]
  inhibition: Active
[3]
  Activity: Active
[4]
  concentration at 8 h: 608 ng/g
[5]
  recovery at 2 h, 1 µM: 101%
[6]
  IC50: 740 nM
[7]
  concentration at 8 h: 2050 ng/g
[8]
  inhibition: Dose-Dependent Effect
[9]
  Activity: ~20%
[10]
  Activity: Non-Toxic
[11]
  Activity: Non-Toxic
[12]
  Activity: Non-Toxic
[13]
  inhibition: Active
[14]
  Activity: Non-Toxic
[15]
  concentration at 8 h: 193 ng/g
[16]
  inhibition: inactive
[17]
  inhibition: Active
[18]
  inhibition: inactive
[19]
  fold change (FC): 22.43
[20]
  IC50: 720 nM
[21]
  fold change (FC): 2.78
[22]
  IC50: 870 nM
[23]
  inhibition at 5 µM: 100%
[24]
  Activity: 280 mm3
[25]
  inhibition: Active
[26]
  inhibition: Active
[27]
  fold change (FC): 166
[28]
  inhibition: Dose-Dependent Effect
[29]
  inhibition: Active
[30]
  fold change (FC): 107.58
[31]
  IC50: 13100 nM
[32]
  inhibition: Active
[33]
  inhibition: Active
[34]
  inhibition: inactive
[35]
  inhibition: inactive
[36]
  IC50: 8530 nM
[37]
  inhibition: Active
[38]
  inhibition: Active
[39]
  inhibition: Active
